One data set addresses VEGFR-2 (Homo sapiens, UniProt P35968). Briefly: ADP-Glo in vitro RTK inhibition assay, VEGFR-2. Format: biochemical. The settings on record: ATP 50 μM. As for the experimental part: (§1) In order to validate the direct effect of title compounds on VEGFR-2, Tie-2, and EphB4 kinases, we performed in vitro assay using the ADP-Glo Kinase Assay Kit (Promega, Wisconsin, USA).
(§2) The kinase assay was performed in a reaction mixture of final volume of 10 μL. […] The plate was incubated at 30°C for 1 h. After the plate was cooled at room temperature for 5 min, 5 μL of ADP-Glo reagent was added into each well to stop the reaction and consume the remaining […] within 40 min. At the end, 10 μL of kinase detection reagent was added into the well and incubated for 30 min to produce a luminescence signal. […] The assay plate was incubated at 30°C for 4 h. After the plate was cooled at room temperature for 5 min, 5 μL of ADP-Glo reagent was added into each well to stop the reaction and consume the remaining […] within 1 h. At the end, 10 μL of kinase detection reagent was added into each well and incubated for 30 min to produce a luminescence signal. The luminescence was read by VICTOR-X multi-label plate reader.
In general terms: In ADP-Glo the light output rises with the ADP produced.

The target of the next data set is TIE-2 (Homo sapiens, UniProt Q02763). Briefly: ADP-Glo in vitro RTK inhibition assay, TIE-2. It is filed as biochemical. The conditions noted are these: ATP 50 μM. As for the experimental part:
as §1, §2

The target of another data set is T1, EphB4 (Homo sapiens, UniProt P54760).
T1 sequence (P54760 16-987): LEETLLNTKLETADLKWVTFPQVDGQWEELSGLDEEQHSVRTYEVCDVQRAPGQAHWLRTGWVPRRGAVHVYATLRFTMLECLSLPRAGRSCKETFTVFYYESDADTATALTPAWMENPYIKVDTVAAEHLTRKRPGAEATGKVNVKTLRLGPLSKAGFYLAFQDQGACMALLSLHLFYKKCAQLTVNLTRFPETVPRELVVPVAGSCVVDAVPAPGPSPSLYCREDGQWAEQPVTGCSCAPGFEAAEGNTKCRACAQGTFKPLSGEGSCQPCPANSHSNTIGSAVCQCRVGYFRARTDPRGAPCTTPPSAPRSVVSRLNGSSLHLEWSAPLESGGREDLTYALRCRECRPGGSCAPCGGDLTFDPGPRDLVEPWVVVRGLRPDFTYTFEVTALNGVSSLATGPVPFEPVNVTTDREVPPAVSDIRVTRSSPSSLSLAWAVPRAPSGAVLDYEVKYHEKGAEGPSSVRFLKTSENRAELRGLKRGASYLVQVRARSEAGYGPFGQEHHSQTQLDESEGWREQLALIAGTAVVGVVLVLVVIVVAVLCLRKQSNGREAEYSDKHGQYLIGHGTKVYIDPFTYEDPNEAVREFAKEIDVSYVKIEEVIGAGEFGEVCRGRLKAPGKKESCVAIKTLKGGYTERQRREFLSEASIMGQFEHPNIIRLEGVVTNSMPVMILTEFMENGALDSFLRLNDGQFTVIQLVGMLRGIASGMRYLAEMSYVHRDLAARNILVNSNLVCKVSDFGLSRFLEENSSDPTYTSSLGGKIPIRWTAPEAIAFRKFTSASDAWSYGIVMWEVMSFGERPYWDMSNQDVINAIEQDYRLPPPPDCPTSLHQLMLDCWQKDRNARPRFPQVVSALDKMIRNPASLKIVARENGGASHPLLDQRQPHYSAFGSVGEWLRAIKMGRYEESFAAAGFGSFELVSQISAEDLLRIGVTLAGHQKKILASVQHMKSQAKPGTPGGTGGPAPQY
Nature of the data set: ADP-Glo in vitro RTK inhibition assay, EphB4. It is filed as biochemical. The conditions noted are these: ATP 50 μM. The procedure:
as §1, §2

The next data set relates to EA.hy926. Briefly: Human endothelial cell (EA.hy926) viability assay, CCK-8. Format: cell-based. The conditions noted are these: Homo sapiens, EA.hy 926, 24 h, CCK-8, 24 h treatment; read-out: Inhibition of human endothelial cell viability, EA.hy926 IC50. As for the experimental part:
In order to determine the anti-angiogenic effect of these multi-target inhibitors, we evaluated their effect on HECs (EA.hy926) viability using cell counting kit-8 (CCK-8) method.
The viability of HECs (EA.hy926) was assessed using the cell counting kit-8 (CCK-8, Sigma, USA) assay according to the manufacturer's instruction. […] After incubation at 37°C for 48 h, the cells were treated with tested compounds at various concentrations for 24 h. Subsequently, premixed CCK-8 and medium (10 μL) were added into the 96-well plates to monitor cell viability and were incubated at 37°C for 2 h. The number of viable cells was assessed by measurement of absorbance at 450 nm by a microplate reader. The viability rate was calculated as experimental OD value/control OD value.

Sequence of VEGFR-2 (P35968 20-1356): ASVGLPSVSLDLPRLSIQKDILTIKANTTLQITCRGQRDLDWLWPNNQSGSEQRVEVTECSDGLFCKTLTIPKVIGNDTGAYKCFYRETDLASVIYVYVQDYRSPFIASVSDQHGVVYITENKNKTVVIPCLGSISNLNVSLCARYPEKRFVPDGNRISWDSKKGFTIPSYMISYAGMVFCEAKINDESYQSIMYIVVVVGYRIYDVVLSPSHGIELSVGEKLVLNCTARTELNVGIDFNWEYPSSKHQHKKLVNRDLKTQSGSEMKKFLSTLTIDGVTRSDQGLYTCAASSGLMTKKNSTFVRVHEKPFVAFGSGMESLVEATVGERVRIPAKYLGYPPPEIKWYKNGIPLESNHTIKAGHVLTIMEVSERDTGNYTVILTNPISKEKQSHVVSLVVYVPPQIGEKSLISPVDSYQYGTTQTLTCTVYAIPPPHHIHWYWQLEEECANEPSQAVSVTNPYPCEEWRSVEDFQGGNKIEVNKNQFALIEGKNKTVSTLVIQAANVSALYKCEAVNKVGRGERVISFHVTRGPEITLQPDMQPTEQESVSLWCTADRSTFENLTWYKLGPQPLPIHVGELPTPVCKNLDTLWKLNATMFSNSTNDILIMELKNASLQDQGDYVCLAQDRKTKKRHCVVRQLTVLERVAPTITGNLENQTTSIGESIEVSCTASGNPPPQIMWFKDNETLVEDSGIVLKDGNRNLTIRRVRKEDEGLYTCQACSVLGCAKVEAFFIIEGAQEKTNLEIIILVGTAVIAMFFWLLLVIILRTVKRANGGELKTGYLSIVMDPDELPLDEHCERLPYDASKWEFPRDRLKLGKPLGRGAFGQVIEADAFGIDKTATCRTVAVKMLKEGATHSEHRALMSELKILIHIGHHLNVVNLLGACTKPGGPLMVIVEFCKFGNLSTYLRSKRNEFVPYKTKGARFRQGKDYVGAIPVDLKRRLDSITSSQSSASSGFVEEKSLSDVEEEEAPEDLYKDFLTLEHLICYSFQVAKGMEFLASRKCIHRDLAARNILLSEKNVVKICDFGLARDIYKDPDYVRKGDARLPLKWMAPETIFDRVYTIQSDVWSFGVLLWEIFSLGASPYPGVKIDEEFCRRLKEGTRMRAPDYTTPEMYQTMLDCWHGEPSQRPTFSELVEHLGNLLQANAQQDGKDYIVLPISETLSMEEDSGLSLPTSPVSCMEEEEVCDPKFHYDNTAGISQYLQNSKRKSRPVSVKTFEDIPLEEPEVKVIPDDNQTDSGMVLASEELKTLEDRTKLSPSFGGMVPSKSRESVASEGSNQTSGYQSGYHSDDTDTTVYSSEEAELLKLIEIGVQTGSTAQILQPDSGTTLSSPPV
Sequence of TIE-2 (Q02763 23-1124): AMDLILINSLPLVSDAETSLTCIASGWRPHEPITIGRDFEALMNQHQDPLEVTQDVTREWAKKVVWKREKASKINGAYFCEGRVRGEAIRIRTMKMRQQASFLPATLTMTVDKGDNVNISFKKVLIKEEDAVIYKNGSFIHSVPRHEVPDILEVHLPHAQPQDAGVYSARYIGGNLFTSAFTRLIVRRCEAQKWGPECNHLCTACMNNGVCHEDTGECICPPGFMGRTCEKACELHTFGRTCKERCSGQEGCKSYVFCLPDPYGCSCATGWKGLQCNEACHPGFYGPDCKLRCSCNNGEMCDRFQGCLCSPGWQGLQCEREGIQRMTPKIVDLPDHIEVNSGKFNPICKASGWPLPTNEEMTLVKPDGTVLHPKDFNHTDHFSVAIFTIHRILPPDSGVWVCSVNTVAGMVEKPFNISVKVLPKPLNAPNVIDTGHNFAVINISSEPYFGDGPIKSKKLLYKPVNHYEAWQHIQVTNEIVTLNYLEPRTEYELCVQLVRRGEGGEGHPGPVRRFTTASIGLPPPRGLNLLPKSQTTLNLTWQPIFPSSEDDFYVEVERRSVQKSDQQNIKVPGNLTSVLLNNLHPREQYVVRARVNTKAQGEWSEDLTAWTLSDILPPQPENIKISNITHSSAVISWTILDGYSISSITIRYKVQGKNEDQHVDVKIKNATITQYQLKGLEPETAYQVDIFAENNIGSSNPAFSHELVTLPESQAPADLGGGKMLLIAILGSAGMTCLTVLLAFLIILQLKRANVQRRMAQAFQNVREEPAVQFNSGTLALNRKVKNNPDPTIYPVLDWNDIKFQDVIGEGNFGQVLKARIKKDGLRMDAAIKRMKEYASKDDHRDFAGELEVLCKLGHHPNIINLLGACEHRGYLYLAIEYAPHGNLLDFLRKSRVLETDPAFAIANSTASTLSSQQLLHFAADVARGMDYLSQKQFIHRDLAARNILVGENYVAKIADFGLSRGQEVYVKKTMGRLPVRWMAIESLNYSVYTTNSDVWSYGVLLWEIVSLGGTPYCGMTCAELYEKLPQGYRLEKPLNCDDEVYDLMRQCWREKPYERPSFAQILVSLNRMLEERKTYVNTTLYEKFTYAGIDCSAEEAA

`FC(F)(F)c1cc(Br)cc(NC(=S)Nc2ccc(-c3cccnc3)cc2)c1` [DATU1, N-[3-bromo-5-(trifluoromethyl)phenyl]-N’-(4-pyridin-3-ylphenyl)thiourea] showed a melting point of 197 to 199 °C. For the same molecule, inhibition on VEGFR-2 was half-maximal at 20.6 nM (IC50). On TIE-2, the IC50 came out at 25.7 nM. At EphB4, this molecule had an IC50 of 20 nM.
As to `FC(F)(F)Oc1cc(Br)ccc1NC(=S)Nc1ccc(-c2cccnc2)cc1` [DATU2, N-[4-bromo-2-(trifluoromethoxy)phenyl]-N’-(4-pyridin-3-ylphenyl)thiourea], the melting point lay in the range of 144 to 145 °C. At VEGFR-2, this molecule returned a half-inhibitory concentration (IC50) of over 500 nM. Also, the IC50 at TIE-2 was found to be 64.2 nM. Besides, the 50% inhibitory concentration (IC50) at EphB4 was over 500 nM. Further, the IC50 in the data set with EA.hy926 stood at 89900 nM.
For the molecule `FC(F)(F)Oc1ccc(NC(=S)Nc2ccc(-c3cccnc3)cc2)c(Br)c1` [DATU3, N-[2-bromo-4-(trifluoromethoxy)phenyl]-N’-(4-pyridin-3-ylphenyl)thiourea], the melting point lay in the range of 162 to 163 °C. Moreover, the half-inhibitory concentration (IC50) against VEGFR-2 was over 500 nM. At TIE-2, this molecule had an IC50 of 20 nM. Further, it took 21.8 nM to reach half-maximal inhibition on EphB4 (IC50). Further, the concentration for half-maximal inhibition (IC50) in the data set with EA.hy926 was 122000 nM.
On to `FC(F)(F)Oc1ccc(Br)cc1NC(=S)Nc1ccc(-c2cccnc2)cc1` [DATU4, N-[5-bromo-2-(trifluoromethoxy)phenyl]-N’-(4-pyridin-3-ylphenyl)thiourea], for which the melting point was 154 to 155 °C. On VEGFR-2, this molecule registered a concentration for half-maximal inhibition (IC50) of over 500 nM. Also, the IC50 on TIE-2 was over 500 nM. Also, half-maximal inhibition against EphB4 (IC50) was put at 18.7 nM. For the same molecule, the half-maximal inhibitory concentration (IC50) in the data set on EA.hy926 stood at 44800 nM.
`FC(F)(F)Oc1ccc(Br)c(NC(=S)Nc2ccc(-c3cccnc3)cc2)c1` [DATU5, N-[2-bromo-5-(trifluoromethoxy)phenyl]-N’-(4-pyridin-3-ylphenyl)thiourea] registered a melting point of 125 to 126 °C. This molecule also gave an IC50 at VEGFR-2 of over 500 nM. At TIE-2, this molecule returned a half-maximal inhibitory concentration (IC50) of over 500 nM. At EphB4, this molecule returned an IC50 of 54.2 nM. For the same molecule, the concentration for half-maximal inhibition (IC50) with EA.hy926 stood at 246000 nM.
For `S=C(Nc1ccc(-c2cccnc2)cc1)Nc1ccc(Cl)cc1Cl` [DATU6, N-(2,4-dichlorophenyl)-N’-(4-pyridin-3-ylphenyl)thiourea], the melting point lay within 156 to 157 °C. This molecule also returned a half-maximal inhibitory concentration (IC50) against VEGFR-2 of 23.5 nM. On TIE-2, the midpoint of inhibition, the IC50, lay at 66.5 nM. In addition, at EphB4, the IC50 came to 3.86 nM. Also, in the data set with EA.hy926, the IC50 amounted to 24400 nM.
The matching figures for `Fc1ccc(NC(=S)Nc2ccc(-c3cccnc3)cc2)cc1F` [DATU7, N-(3,4-difluorophenyl)-N’-(4-pyridin-3-ylphenyl)thiourea]: 139 to 140 °C, 45.2 nM, 48.4 nM, 10 nM and 96400 nM.
`S=C(Nc1ccc(-c2cccnc2)cc1)Nc1ccc(Cl)c(Cl)c1` [DATU8, N-(3,4-dichlorophenyl)-N’-(4-pyridin-3-ylphenyl)thiourea] came in with a melting point of 173 to 175 °C. Moreover, at VEGFR-2, the midpoint of inhibition, the IC50, lay at 354 nM. Besides, the half-inhibitory concentration (IC50) against TIE-2 stood at 9.4 nM. The same molecule displayed an IC50 on EphB4 of over 500 nM. Also, the concentration for half-maximal inhibition (IC50) with EA.hy926 was 102000 nM.
On the same counts, the results for `FC(F)(F)c1cc(NC(=S)Nc2ccc(-c3cccnc3)cc2)cc(C(F)(F)F)c1` [DATU9, N-[3,5-bis(trifluoromethyl)phenyl]-N’-(4-pyridin-3-ylphenyl)thiourea] are 157 to 158 °C, over 500 nM, over 500 nM, over 500 nM and 166000 nM.
Molecule `S=C(Nc1ccc(-c2cccnc2)cc1)Nc1ccc2c(c1)OCO2` [DATU10, N-1,3-benzodioxol-5-yl-N’-(4-pyridin-3-ylphenyl)thiourea] showed a melting point of 147 to 148 °C. The molecule also registered an IC50 against VEGFR-2 of 20.4 nM. Further, the half-maximal inhibitory concentration (IC50) at TIE-2 is over 500 nM. In addition, at EphB4, the IC50 is over 500 nM. In the data set on EA.hy926, the half-inhibitory concentration (IC50) was 90600 nM.
For `O=C(Nc1ccc(-c2ccc3c(=O)[nH]cnc3c2)cc1)Nc1cccc(C(F)(F)F)c1` [QDAU1, 1-(4-(4-oxo-3,4-dihydroquinazolin-7-yl)phenyl)-3-(3-(trifluoromethyl)phenyl)urea], the half-maximal inhibitory concentration (IC50) against VEGFR-2 was 194 nM; against TIE-2, 70.5 nM; against EphB4 it was over 500 nM; with EA.hy926, 57900 nM.
Consider `O=C(Nc1ccc(-c2ccc3c(=O)[nH]cnc3c2)cc1)Nc1cccc(Cl)c1` [QDAU2, 1-(3-chlorophenyl)-3-(4-(4-oxo-3,4-dihydroquinazolin-7-yl)phenyl)urea], for which the melting point is over 300 °C. For the same molecule, the concentration for half-maximal inhibition (IC50) against VEGFR-2 worked out at 57.9 nM. At TIE-2, this molecule registered a concentration for half-maximal inhibition (IC50) of 83.9 nM. The IC50 on EphB4 was over 500 nM. Also, in the data set with EA.hy926, the IC50 turned out to be 66300 nM.
In turn, `O=C(Nc1ccc(-c2ccc3c(=O)[nH]cnc3c2)cc1)Nc1cccc(F)c1` [QDAU3, 1-(3-fluorophenyl)-3-(4-(4-oxo-3,4-dihydroquinazolin-7-yl)phenyl)ure] yielded a melting point of over 300 °C. On VEGFR-2, this molecule registered an IC50 of over 500 nM. The molecule also registered a concentration for half-maximal inhibition (IC50) against TIE-2 of 90.7 nM. In addition, the 50% inhibitory concentration (IC50) at EphB4 turned out to be 5.64 nM. Also, in the data set on EA.hy926, the IC50 was found to be 42600 nM.
On the same counts, the results for `O=C(Nc1ccc(F)cc1)Nc1ccc(-c2ccc3c(=O)[nH]cnc3c2)cc1` [QDAU6, 1-(4-fluorophenyl)-3-(4-(4-oxo-3,4-dihydroquinazolin-7-yl)phenyl)urea] are over 300 °C, 6.28 nM, 101 nM, over 500 nM and 255000 nM.
`O=C(Nc1ccc(OC(F)(F)F)cc1)Nc1ccc(-c2ccc3c(=O)[nH]cnc3c2)cc1` [QDAU7, 1-(4-(4-oxo-3,4-dihydroquinazolin-7-yl)phenyl)-3-(4-(trifluoromethoxy)phenyl)urea] returned a melting point of over 300 °C. On VEGFR-2, this molecule yielded an IC50 of over 500 nM. At TIE-2, the half-inhibitory concentration (IC50) is 258 nM. Further, the IC50 against EphB4 was over 500 nM. The half-maximal inhibitory concentration (IC50) in the data set with EA.hy926 amounted to 68500 nM.
`CC(C)c1cccc(NC(=O)Nc2ccc(-c3ccc4c(=O)[nH]cnc4c3)cc2)c1` [QDAU8, 1-(3-isopropylphenyl)-3-(4-(4-oxo-3,4-dihydroquinazolin-7-yl)phenyl)urea] showed a melting point of over 300 °C. In addition, the IC50 against VEGFR-2 is 41.5 nM. The half-inhibitory concentration (IC50) against TIE-2 was over 500 nM. The IC50 at EphB4 is over 500 nM. Besides, the IC50 with EA.hy926 was found to be 76200 nM.
The molecule `O=C(Nc1ccc(-c2ccc3c(=O)[nH]cnc3c2)cc1)Nc1ccc(Cl)c(C(F)(F)F)c1` [QDAU9, 1-(4-chloro-3-(trifluoromethyl)phenyl)-3-(4-(4-oxo-3,4-dihydroquinazolin-7-yl)phenyl)urea] had a melting point of over 300 °C. Besides, the IC50 on VEGFR-2 is 15.8 nM. The IC50 against TIE-2 was found to be 19.6 nM. Moreover, at EphB4, half-maximal inhibition (IC50) required 24.4 nM. Further, the half-maximal inhibitory concentration (IC50) with EA.hy926 stood at 13000 nM.
In turn, `O=C(Nc1ccc(-c2ccc3c(=O)[nH]cnc3c2)cc1)Nc1ccc(C(F)(F)F)cc1` [QDAU10, 1-(4-(4-oxo-3,4-dihydroquinazolin-7-yl)phenyl)-3-(4-(trifluoromethyl)phenyl)urea] yielded a melting point of over 300 °C. This molecule also showed a half-inhibitory concentration (IC50) against VEGFR-2 of 50.7 nM. Also, on TIE-2, the midpoint of inhibition, the IC50, lay at 52.7 nM. At EphB4, the IC50 was over 500 nM. Also, the IC50 in the data set on EA.hy926 was 125000 nM.

For orientation: IC50 means the concentration that inhibits the measured activity by half. One may read the melting point as the temperature, or range, at which the solid turns liquid.

For the origin of these results see article PMC5739597, “Discovery and evaluation of triple inhibitors of VEGFR-2, TIE-2 and EphB4 as anti-angiogenic and anti-cancer agents” (Oncotarget, 2017).
